Experimental data taken from ChEMBL document CHEMBL1201862, “PubChem BioAssay data set” (2004).
Values belong to the molecule of their own block, whether it stands above or below them. Active and inactive are the calls of the source.

Experiments:
[1] = target: Tyrosyl-DNA phosphodiesterase 2 (Homo sapiens, UniProt O95551); test: human TDP2 enzyme inhibitors, dose response, biochemical, epi absorbance, IC50 (AID 743297)
[2] = target: Genome polyprotein (dengue virus type 2, UniProt P29990); test: Dengue-2 NS5 methyltransferase inhibitors, primary screen, biochemical, confirmation dose response (AID 588689); assay type: functional
Chain of Genome polyprotein (P29990 2492-3391 limits assumed): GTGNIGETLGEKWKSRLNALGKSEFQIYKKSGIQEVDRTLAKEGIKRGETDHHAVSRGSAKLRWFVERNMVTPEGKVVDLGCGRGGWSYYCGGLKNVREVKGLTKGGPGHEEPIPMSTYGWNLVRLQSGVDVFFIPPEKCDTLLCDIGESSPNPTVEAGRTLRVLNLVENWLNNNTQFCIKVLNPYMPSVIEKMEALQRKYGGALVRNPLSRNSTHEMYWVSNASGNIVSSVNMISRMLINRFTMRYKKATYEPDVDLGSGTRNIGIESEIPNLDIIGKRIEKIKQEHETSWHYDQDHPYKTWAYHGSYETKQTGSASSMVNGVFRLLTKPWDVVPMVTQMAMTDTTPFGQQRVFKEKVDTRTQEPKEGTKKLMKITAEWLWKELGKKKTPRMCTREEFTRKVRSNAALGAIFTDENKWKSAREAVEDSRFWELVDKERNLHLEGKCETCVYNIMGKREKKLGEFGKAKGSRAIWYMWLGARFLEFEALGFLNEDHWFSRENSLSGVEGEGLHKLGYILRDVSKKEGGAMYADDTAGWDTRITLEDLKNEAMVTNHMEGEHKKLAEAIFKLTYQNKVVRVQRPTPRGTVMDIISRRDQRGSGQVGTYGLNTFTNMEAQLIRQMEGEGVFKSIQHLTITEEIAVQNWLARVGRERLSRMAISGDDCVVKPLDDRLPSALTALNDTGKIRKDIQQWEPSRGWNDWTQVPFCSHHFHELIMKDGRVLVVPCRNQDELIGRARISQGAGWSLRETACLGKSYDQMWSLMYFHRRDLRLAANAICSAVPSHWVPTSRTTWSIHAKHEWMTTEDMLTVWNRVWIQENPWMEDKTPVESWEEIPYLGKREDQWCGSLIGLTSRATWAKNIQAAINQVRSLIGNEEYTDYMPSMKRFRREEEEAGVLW

[3] = target: T1, Apoptotic protease-activating factor 1 (Homo sapiens, UniProt O14727); assay type: functional
T1 sequence (O14727 whole entry): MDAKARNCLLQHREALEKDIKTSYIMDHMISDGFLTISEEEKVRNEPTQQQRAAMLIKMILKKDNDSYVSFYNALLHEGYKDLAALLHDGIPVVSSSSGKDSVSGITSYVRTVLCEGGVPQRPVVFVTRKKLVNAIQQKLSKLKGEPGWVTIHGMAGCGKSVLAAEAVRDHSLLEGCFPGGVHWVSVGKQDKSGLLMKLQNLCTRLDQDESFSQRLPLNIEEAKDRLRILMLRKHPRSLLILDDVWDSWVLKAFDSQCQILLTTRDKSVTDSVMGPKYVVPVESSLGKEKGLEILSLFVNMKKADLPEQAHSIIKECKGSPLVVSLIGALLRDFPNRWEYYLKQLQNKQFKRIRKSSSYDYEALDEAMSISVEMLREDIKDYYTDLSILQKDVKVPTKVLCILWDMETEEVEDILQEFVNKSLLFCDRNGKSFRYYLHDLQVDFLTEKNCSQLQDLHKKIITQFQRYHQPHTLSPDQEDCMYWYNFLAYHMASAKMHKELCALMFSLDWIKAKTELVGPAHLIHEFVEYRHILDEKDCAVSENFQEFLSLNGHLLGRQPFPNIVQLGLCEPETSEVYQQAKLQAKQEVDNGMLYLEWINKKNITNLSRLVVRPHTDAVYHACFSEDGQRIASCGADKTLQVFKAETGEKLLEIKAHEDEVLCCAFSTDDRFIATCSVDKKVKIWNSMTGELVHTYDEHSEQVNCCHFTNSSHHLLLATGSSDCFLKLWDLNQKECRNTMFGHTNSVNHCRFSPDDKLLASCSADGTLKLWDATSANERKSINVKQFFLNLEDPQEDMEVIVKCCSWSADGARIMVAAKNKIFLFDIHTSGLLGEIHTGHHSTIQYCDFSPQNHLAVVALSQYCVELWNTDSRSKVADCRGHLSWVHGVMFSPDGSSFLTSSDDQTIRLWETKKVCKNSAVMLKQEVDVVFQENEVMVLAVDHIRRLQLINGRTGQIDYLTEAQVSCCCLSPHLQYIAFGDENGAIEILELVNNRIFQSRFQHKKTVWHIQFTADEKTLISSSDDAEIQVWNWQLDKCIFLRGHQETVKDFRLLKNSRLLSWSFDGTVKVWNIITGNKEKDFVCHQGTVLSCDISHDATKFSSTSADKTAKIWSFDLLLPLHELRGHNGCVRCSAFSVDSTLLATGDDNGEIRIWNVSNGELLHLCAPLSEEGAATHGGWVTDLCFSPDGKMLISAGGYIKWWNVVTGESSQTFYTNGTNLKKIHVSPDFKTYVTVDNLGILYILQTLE

[4] = target: Heat shock protein HSP 90-alpha (Homo sapiens, UniProt P07900); assay type: functional, organism-based
[5] = Shn3 3'UTR reporter inhibitors, dose response, cell-based, Clone20 osteoblasts, firefly luciferase, cherry-picked (AID 624132); assay type: functional;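 further: firefly luciferase luminescence from reporter carrying the Shn3 3'UTR in osteoblasts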
[6] = inhibitors of control Renilla luciferase reporter, dose response, counter-screen for Shn3 3'UTR targeting project, Clone20-Shn3RL cells, dual-Glo, cherry-pick, set 2 (AID 720724); assay type: functional, cell-based; details: Dual-Go Shn3RL
[7] = target: T2, Heat shock factor protein 1 (Mus musculus, UniProt P38532); test: HSF1 potentiators in luciferase reporter cells, confirmation, cell-based, NIH3T3, luminescence, dose retest (AID 435004); assay type: functional;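 further: stress induced by proteasome inhibitor MG132 added 30 min after compound; luciferase reporter driven by HSF1 response element in NIH3T3 cells; actives raise luminescence as potentiators of the MG132 stress response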
T2 sequence (P38532 whole entry): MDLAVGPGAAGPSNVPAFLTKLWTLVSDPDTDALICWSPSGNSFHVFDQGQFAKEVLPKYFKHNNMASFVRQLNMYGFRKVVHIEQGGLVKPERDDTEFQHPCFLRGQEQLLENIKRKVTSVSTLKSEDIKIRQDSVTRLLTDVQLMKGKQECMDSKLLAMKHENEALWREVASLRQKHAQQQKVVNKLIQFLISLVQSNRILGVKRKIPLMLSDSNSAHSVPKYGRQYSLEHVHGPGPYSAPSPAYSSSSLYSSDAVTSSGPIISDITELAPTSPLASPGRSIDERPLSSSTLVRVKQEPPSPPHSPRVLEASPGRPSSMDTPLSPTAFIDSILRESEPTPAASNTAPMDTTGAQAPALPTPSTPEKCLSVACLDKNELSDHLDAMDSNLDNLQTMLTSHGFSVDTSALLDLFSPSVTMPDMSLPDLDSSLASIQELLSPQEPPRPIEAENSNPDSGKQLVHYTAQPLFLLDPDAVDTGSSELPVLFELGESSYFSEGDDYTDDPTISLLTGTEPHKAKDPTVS

[8] = target: T3, Short transient receptor potential channel 4 (Mus musculus, UniProt Q9QUQ5); test: mouse TRPC4 channel activators, dose response, cell-based, HEK293 TRPC4/mu-opioid, Fluo-4 calcium (AID 434937); assay type: functional
T3 sequence (Q9QUQ5 whole entry): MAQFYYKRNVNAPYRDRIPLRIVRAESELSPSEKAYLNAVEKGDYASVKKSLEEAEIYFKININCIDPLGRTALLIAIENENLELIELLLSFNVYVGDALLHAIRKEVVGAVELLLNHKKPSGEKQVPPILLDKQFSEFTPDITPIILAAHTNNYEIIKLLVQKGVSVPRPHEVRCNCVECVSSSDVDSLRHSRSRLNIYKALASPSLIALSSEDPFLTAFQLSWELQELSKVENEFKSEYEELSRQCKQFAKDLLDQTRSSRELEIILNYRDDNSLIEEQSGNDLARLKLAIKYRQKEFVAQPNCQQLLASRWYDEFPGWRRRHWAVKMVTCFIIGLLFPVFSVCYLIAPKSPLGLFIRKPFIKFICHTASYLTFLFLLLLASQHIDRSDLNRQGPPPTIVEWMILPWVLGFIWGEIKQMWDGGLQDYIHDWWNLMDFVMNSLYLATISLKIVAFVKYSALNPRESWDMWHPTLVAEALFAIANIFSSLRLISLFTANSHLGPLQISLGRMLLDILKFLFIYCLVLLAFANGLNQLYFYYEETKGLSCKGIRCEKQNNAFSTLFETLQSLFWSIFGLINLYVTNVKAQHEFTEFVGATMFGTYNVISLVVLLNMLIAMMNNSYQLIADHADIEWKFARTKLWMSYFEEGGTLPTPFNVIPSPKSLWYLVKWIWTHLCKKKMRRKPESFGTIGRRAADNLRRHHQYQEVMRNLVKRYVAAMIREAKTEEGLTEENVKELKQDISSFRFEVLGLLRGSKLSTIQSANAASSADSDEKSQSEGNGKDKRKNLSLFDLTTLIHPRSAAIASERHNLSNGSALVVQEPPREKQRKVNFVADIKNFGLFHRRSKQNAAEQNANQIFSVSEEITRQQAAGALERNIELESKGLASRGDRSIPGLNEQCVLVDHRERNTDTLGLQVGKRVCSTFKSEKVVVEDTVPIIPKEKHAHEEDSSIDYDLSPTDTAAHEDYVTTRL

[9] = system: CHO; test: cytotoxicity in TLR9-MyD88 CHO cells, dose response, cytotoxicity control for TLR9-MyD88 binding inhibitor project, cell-based, luminescence (AID 588339); assay type: functional, hamster; details: Cricetulus griseus;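 further: CHO cells stably coexpressing TLR9 and MyD88 fusions from primary screen; compound exposure lasted 48 hours before viability readout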
[10] = target: Beta Lactamase (Pseudomonas aeruginosa, UniProt Q932Y6); test: beta-lactamase reporter inhibitor potency, dose response, artefact control for TLR9-MyD88 binding inhibitor project, BLA reporter cells, FRET fluorescence (AID 588341); assay type: cell-based;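 further: cell based assay in CHO-K1 cells stably expressing beta-lactamase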
Chain of Beta Lactamase (Q932Y6 whole entry): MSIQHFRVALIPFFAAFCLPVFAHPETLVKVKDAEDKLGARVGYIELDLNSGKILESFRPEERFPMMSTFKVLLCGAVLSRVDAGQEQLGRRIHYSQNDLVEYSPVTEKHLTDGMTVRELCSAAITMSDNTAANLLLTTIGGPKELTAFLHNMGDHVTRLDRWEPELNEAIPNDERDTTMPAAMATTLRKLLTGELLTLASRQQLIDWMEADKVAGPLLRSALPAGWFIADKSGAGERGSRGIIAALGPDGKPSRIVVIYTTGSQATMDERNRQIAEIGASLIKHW

[11] = human group III sPLA2 inhibitors, dose response, biochemical, QFRET, IC50 (AID 743457);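 further: green fluorescence rise as the enzyme cleaves BODIPY PC-A2 in liposomes; potency for inhibition of the enzyme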
[12] = target: T4, Polyadenylate-binding protein 1 (Homo sapiens, UniProt P11940); test: PABP1 MLLE–PAM2 interaction inhibitors, dose response, miRNA deadenylation inhibitor project, biochemical, fluorescence polarization, Cy5-PAM2 peptide, secondary (AID 602260); assay type: functional; details: read-out: IC50_Mean
T4 sequence (P11940 whole entry): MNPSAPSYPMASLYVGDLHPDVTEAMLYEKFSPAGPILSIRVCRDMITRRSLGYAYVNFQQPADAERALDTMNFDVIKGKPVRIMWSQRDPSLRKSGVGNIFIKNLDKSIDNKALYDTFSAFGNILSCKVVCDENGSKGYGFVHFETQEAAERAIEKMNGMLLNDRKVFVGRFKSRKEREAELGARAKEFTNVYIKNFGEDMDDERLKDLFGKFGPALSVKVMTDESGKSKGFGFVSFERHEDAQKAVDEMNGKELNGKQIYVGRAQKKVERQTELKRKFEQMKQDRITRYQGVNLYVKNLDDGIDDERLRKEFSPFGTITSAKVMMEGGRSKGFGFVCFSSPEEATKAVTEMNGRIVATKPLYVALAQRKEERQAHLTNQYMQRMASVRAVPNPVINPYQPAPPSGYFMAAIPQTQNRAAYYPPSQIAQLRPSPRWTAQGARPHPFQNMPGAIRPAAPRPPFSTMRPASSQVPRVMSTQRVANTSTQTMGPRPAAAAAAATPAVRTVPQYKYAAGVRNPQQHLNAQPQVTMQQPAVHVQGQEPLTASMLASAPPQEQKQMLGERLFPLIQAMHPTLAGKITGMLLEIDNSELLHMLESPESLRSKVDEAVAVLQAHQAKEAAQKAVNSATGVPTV

[13] = system: Vero; test: Vero cell cytotoxicity, cytotoxicity control for flavivirus capping enzyme inhibitors (AID 588742); assay type: functional; details: Chlorocebus sabaeus
[14] = target: T4, Polyadenylate-binding protein 1; test: PABP1 MLLE–PAM2 binding inhibitor potency, dose response, biochemical, fluorescence polarization, FITC-PAM2 peptide (AID 602259); assay type: functional; details: read-out: IC50_Mean
[15] = system: HEK293; test: inhibitors of LMP1-driven NF-kB reporter, dose response, cell-based, HEK293, luciferase, cherry-pick (AID 588343); assay type: functional; details: Homo sapiens
[16] = non-specific cell cytotoxicity, dose response, cytotoxicity control for PAX8 inhibitor project, plate reader, dry powder samples (AID 743021); assay type: functional, cell-based
[17] = target: Paired box protein Pax-8 (Homo sapiens, UniProt Q06710); test: inhibitors of PAX8-driven TPO luciferase reporter, dose response, RMG-I cells, cherry-pick (AID 687027); assay type: functional, cell-based;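 further: luciferase reporter driven by Pax8 target thyroperoxidase promoter measured by SteadyGlo luminescence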
Chain of Paired box protein Pax-8 (Q06710 whole entry): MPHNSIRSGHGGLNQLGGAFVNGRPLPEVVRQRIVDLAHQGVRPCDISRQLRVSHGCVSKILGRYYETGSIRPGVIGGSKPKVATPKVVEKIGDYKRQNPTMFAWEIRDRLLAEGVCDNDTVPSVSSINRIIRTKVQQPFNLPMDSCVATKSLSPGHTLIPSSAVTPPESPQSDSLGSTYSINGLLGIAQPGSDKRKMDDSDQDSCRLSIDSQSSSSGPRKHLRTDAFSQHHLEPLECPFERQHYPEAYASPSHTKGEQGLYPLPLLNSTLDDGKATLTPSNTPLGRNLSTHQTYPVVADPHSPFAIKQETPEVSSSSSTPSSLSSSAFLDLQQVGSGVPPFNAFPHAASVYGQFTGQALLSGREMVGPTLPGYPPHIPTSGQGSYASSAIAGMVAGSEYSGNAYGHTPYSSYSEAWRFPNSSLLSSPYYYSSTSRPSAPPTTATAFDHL

[18] = miR-122 activators in hepatoma reporter cells, dose response, cell-based, Huh7 psiCHECK-miR122, Renilla luciferase, cherry-picked (AID 651956); assay type: functional;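 further: huh7 hepatoma cells stably carrying a psiCHECK-2 miR-122 sensor plasmid; renilla luciferase signal reporting endogenous miR-122 activity after 48 h compound exposure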
[19] = HEK293 cell cytotoxicity, dose response, cytotoxicity control, cherry-picks, set 5 (AID 1053117); assay type: functional, cell-based
[20] = P. falciparum Dd2 growth inhibitors, dose response, SYBR Green, cherry-picked samples (AID 1159567); assay type: functional, cell-based
[21] = HepG2 cell cytotoxicity, dose response, cytotoxicity control, cherry-picked samples (AID 1159577); assay type: functional, cell-based
[22] = target: Potassium channel subfamily K member 3 (Rattus norvegicus, UniProt O54912); test: SAR analysis for the identification of selective inhibitors of the two-pore domain potassium channel TASK1(KCNK3):Automated Electrophysiology.; assay type: functional
Chain of Potassium channel subfamily K member 3 (Rattus norvegicus, UniProt O54912) (O54912 whole entry, the tested form may be a part): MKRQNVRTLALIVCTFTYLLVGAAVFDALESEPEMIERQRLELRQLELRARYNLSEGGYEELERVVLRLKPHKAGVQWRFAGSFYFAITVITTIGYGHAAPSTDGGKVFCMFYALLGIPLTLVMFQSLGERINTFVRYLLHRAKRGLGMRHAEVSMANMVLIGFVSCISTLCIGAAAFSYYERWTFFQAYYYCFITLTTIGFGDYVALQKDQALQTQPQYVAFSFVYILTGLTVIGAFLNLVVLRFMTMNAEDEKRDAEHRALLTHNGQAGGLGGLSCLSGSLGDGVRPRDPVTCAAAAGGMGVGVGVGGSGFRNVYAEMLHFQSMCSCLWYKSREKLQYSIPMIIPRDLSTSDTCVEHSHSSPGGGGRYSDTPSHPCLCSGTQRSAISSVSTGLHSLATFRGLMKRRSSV

[23] = target: Potassium channel subfamily K member 3 (Homo sapiens, UniProt O14649); test: TASK1 (KCNK3) potassium channel inhibitors, SAR follow-up, CHO cells, FluxOR thallium flux (AID 652212); assay type: functional
Chain of Potassium channel subfamily K member 3 (Homo sapiens, UniProt O14649) (O14649 whole entry): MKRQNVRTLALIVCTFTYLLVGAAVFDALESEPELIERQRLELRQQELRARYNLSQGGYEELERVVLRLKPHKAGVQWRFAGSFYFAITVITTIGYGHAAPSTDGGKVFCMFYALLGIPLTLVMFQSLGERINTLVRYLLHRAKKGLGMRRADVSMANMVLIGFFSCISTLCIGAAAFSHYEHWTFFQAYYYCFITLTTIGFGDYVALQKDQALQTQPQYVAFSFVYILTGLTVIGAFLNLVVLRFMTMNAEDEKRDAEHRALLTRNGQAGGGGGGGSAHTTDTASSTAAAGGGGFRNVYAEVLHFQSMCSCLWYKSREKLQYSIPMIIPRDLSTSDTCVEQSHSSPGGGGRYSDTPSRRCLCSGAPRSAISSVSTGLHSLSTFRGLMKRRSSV

[24] = target: Potassium channel subfamily K member 9 (Homo sapiens, UniProt Q9NPC2); test: TASK3 (KCNK9) channel inhibitors, thallium flux, SAR follow-up, selectivity assay for TASK1 inhibitor project, cell-based, FluxOR thallium flux, concentration-response (AID 652211); assay type: functional;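 further: potency is for inhibitors of the channel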
Chain of Potassium channel subfamily K member 9 (Q9NPC2 whole entry): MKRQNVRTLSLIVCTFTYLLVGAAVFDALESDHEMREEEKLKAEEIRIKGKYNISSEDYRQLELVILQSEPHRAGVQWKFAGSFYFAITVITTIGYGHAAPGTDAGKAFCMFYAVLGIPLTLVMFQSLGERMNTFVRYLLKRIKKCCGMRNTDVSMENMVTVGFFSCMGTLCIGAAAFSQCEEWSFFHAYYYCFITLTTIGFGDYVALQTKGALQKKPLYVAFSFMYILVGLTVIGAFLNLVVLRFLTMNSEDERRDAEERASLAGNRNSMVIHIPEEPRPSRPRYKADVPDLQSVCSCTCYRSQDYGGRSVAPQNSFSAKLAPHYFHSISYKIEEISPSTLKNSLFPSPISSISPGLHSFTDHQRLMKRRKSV

Chain of Tyrosyl-DNA phosphodiesterase 2 (O95551 whole entry): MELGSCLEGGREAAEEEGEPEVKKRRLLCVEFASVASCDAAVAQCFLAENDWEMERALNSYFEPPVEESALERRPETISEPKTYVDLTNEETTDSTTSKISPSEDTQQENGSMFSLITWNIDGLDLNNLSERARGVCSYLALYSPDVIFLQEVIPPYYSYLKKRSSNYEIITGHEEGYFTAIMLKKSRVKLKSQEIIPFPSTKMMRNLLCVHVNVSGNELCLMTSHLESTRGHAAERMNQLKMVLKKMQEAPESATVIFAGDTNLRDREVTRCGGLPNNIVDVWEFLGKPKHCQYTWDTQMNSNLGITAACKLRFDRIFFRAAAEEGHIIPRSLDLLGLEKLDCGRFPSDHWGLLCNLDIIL

IC50 [1]: 19.3 µM (inactive) | IC50 [2]: > 100 µM (active) | IC50 [3]: 12.5 µM (active)
Compound: O=C1C(O)=C(O)C(=O)c2ccccc21

Compound: O=C1S/C(=C\c2ccc(N3CCOCC3)o2)C(=O)N1Cc1c(F)cccc1Cl
AC50 [4]: 18.5 µM (active) | AC50 [5]: 6.72 µM (active) | AC50 [6]: 42.1 µM (active) | EC50 [7]: > 260 µM (inactive) | EC50 [8]: 6.68 µM (active)

Compound: COc1ccccc1N(C(C)=O)C1=C(Cl)C(=O)c2ccccc2C1=O
IC50 [9]: 1.03 µM (active) | IC50 [10]: 5.37 µM (active) | IC50 [11]: > 122 µM (inactive) | IC50 [12]: > 66 µM (inactive) | CC50 [13]: 22.6 µM (active) | IC50 [2]: 9.2 µM (active) | IC50 [14]: > 66 µM (inactive) | AC50 [15]: 5.98 µM (active) | AC50 [16]: 27.8 µM (active) | AC50 [17]: 3.59 µM (active)

Compound: CO[C@@H]1CN(C)C(=O)c2cc(NC(=O)Nc3ccc(Cl)c(Cl)c3)ccc2OC[C@H](C)NC[C@H]1C
AC50 [18]: 24.8 µM (active) | AC50 [19]: > 52 µM (inactive) | AC50 [20]: 6.4 µM (active) | AC50 [21]: 7.83 µM (active)

IC50 [22]: 0.03 µM (active) | IC50 [23]: 0.008 µM (active) | IC50 [24]: 3.02 µM (active)
Compound: COc1ccccc1NC(=O)c1cccc(NC(=O)c2ccccc2OC)c1
